Counter-ions that a name gives are not always drawn. Like-named read-outs stand apart in the source and are kept apart here.
Tested on: male Wistar rats
Assay: conditioned avoidance response test (anxiolytic and tranquilizing action)
Type: in vivo
Conditions: suppression of conditioned avoidance response, oral administration 45 minutes before study; for Activity %: dose not given
Method: In this test, male Wistar rats of 200 grams weight are used, trained to jump over a barrier in an avoidance and exit cage (shuttle box) (Letica, reference L1 910 and L1 2700) in the 30 seconds following their introduction into the cage.
The products with anxiolytic or tranquilizing activity suppress the conditioned avoidance response.
Training: first day: 11 tests, at intervals of 3 minutes. Electro-shock on the paws, at 30 seconds (5 mA, 0.1 s, 10 s).
Second and third days: 2 tests per day, solely with selected rats [sum of the points of the first day (excepting the first test)>14].
Day of test: groups formed of selected rats. Oral administration of the product or of the vehicle 45 minutes before starting the study.

[1] = Rattus norvegicus, po, 0.75 h, read-out: ED50

| Structure (SMILES) | ED50 [1] [mg/kg] | Activity % [%] | ED50 (45 min) [mg/kg] | ED50 (dihydrochloride, 45 min) [mg/kg] | Activity % (dihydrochloride) [%] |
| --- | --- | --- | --- | --- | --- |
| O=C1CC2(CCCC2)CC(=O)N1CCCCN1CCN(c2ncccn2)CC1 [Buspirone, reference compound] | 17.2 | 99 |  |  |  |
| c1cnc(N2CCN(CCCCn3cccn3)CC2)nc1 [Example 1, 1H-pyrazole-1-(4-(4-(2-pyrimidinyl)-1-piperazinyl)-butyl)] | 26.2 | 98 |  |  |  |
| Cc1cc(C)n(CCCCN2CCN(c3ncccn3)CC2)n1 [Example 2] | 80 | 50 |  |  |  |
| Cc1nn(CCCCN2CCN(c3ncccn3)CC2)c(C)c1[N+](=O)[O-] [Example 3] | 58.3 | 61 |  |  |  |
| Cc1cnn(CCCCN2CCN(c3ncccn3)CC2)c1 [Example 4] | < 20 | 98 |  |  |  |
| c1cnc(N2CCN(CCCCn3ncc4ccccc43)CC2)nc1 [Example 5] | 80 | 45 |  |  |  |
| Cc1nn(CCCCN2CCN(c3ncccn3)CC2)c(C)c1Br [Example 6] | 80 | 51 |  |  |  |
| O=[N+]([O-])c1cnn(CCCCN2CCN(c3ncccn3)CC2)c1 [Example 7, 1H-pyrazole-4-nitro-1-(4-(4-(2-pyrimidinyl)-1-piperazinyl)-butyl)] | 6.2 | 98 |  |  |  |
| Clc1cnn(CCCCN2CCN(c3ncccn3)CC2)c1 [Example 8, 1H-pyrazole-4-chloro-1-(4-(4-(2-pyrimidinyl)-1-piperazinyl)-butyl)] |  | 95 | 17.9 |  |  |
| CCOC(=O)c1cnn(CCCCN2CCN(c3ncccn3)CC2)c1 [Example 9] |  | 14 |  |  |  |
| Cc1cc(-c2ccccc2)n(CCCCN2CCN(c3ncccn3)CC2)n1 [Example 10] |  | 24 |  |  |  |
| Brc1cnn(CCCCN2CCN(c3ncccn3)CC2)c1 [Example 11] | 28.9 | 95 |  |  |  |
| N#Cc1cnn(CCCCN2CCN(c3ncccn3)CC2)c1 [Example 12] |  | 100 |  |  |  |
| Fc1cnn(CCCCN2CCN(c3ncccn3)CC2)c1 [Example 13] |  | 85 |  |  |  |
| Nc1cnn(CCCCN2CCN(c3ncccn3)CC2)c1 [Example 15, 1H-pyrazole-4-amino-1-(4-(4-(2-pyrimidinyl)-1-piperazinyl)-butyl)] | 27.7 | 79 |  |  |  |
| CS(=O)(=O)Nc1cnn(CCCCN2CCN(c3ncccn3)CC2)c1 [Example 16, 1H-pyrazole-4-methylsulfonamido-1-(4-(4-(2-pyrimidinyl)-1-piperazinyl)-butyl)] | 40 | 64 |  |  |  |
| O=C(Nc1cnn(CCCCN2CCN(c3ncccn3)CC2)c1)c1ccccc1 [Example 17] | 65.9 | 62 |  |  |  |
| CC(=O)Nc1cnn(CCCCN2CCN(c3ncccn3)CC2)c1 [Example 18] | 28.8 | 89 |  |  |  |
| CCC(C)Nc1cnn(CCCCN2CCN(c3ncccn3)CC2)c1 (stereo not shown) [Example 19] | 29.7 | 80 |  |  |  |
| Brc1cnc(N2CCN(CCCCn3cc(Br)cn3)CC2)nc1 [Example 20] | 76.8 | 59 |  |  |  |
| Clc1cnn(CCCCN2CCN(c3ncc(Br)cn3)CC2)c1 [Example 21] | 51.7 | 48 |  |  |  |
| Cc1ccnn1CCCCN1CCN(c2ncccn2)CC1 [Example 22] |  | 47 |  |  |  |
| Cc1c(Br)cnn1CCCCN1CCN(c2ncccn2)CC1 [Example 24, 1H-pyrazole-4-bromo-5-methyl-1-(4-(4-(2-pyrimidinyl)-1-piperazinyl)-butyl)] | 60.6 | 53 |  |  |  |
| Cc1nn(CCCCN2CCN(c3ncccn3)CC2)cc1Br [Example 25] | 58.3 | 59 |  |  |  |
| c1cnc(N2CCN(CCCCn3ncc4c3CCCC4)CC2)nc1 [Example 26] | 19.5 | 97 |  |  |  |

| Structure (SMILES) | ED50 [1] [mg/kg] | Activity % [%] | ED50 (45 min) [mg/kg] | ED50 (dihydrochloride, 45 min) [mg/kg] | Activity % (dihydrochloride) [%] |
| --- | --- | --- | --- | --- | --- |
| c1cnc(N2CCN(CCCCn3cc4c(n3)CCCC4)CC2)nc1 [Example 27] | 18.9 | 98 |  |  |  |
| Cc1c(-c2ccccc2)cnn1CCCCN1CCN(c2ncccn2)CC1 [Example 28] | 32.2 | 75 |  |  |  |
| Cc1nn(CCCCN2CCN(c3ncccn3)CC2)cc1-c1ccccc1 [Example 29] | 31.9 | 78 |  |  |  |
| Fc1cn(CCCCN2CCN(c3ncccn3)CC2)nc1Cl [Example 30] | 53.9 | 85 |  |  |  |
| COc1ccc(-c2cnn(CCCCN3CCN(c4ncccn4)CC3)c2)cc1 [Example 32] | 22.5 | 60 |  |  |  |
| Clc1ccc(-c2cnn(CCCCN3CCN(c4ncccn4)CC3)c2)cc1 [Example 33] | 15.7 | 90 |  |  |  |
| c1cnc(N2CCN(CCCCn3cc(-n4cccc4)cn3)CC2)nc1 [Example 34] | 5 | 100 |  |  |  |
| c1ccc(-c2cnn(CCCCN3CCN(c4ncccn4)CC3)c2)cc1 [Example 35] | 27.4 | 100 |  |  |  |
| c1ccc(-c2cc(-c3ccccc3)n(CCCCN3CCN(c4ncccn4)CC3)n2)cc1 [Example 36] | 122 | 31 |  |  |  |
| O=S(=O)(Nc1cnn(CCCCN2CCN(c3ncccn3)CC2)c1)c1ccccc1 [Example 37] | 85 | 46 |  |  |  |
| Cc1ccc(S(=O)(=O)Nc2cnn(CCCCN3CCN(c4ncccn4)CC3)c2)cc1 [Example 38] | 102 | 37 |  |  |  |
| CCCCS(=O)(=O)Nc1cnn(CCCCN2CCN(c3ncccn3)CC2)c1 [Example 39] | 73 | 57 |  |  |  |
| CCCS(=O)(=O)Nc1cnn(CCCCN2CCN(c3ncccn3)CC2)c1 [Example 40] | 73 | 57 |  |  |  |
| CCS(=O)(=O)Nc1cnn(CCCCN2CCN(c3ncccn3)CC2)c1 [Example 41] | 29.3 | 77 |  |  |  |
| Cc1nn(CCCCN2CCN(c3ncccn3)CC2)c(C)c1S(=O)(=O)N(C)C [Example 42] | 82 | 45 |  |  |  |
| CN(C)S(=O)(=O)c1cnn(CCCCN2CCN(c3ncccn3)CC2)c1 [Example 43] | 72 | 63 |  |  |  |
| O=S(=O)(O)c1cnn(CCCCN2CCN(c3ncccn3)CC2)c1 [Example 44] |  | 15 |  |  |  |
| c1cnc(N2CCN(CCCCn3ccnc3)CC2)nc1 [Example 45] | 93 | 35 |  |  |  |
| Clc1ncn(CCCCN2CCN(c3ncccn3)CC2)c1Cl [Example 46] |  | 99 |  |  |  |
| Cc1cn(CCCCN2CCN(c3ncccn3)CC2)cn1 [Example 47] | 80 | 50 |  |  |  |
| Cc1cncn1CCCCN1CCN(c2ncccn2)CC1 [Example 48] | 75 | 52 |  |  |  |
| Clc1cnn(CCCCN2CCN(c3ncccn3)CC2)c1 [Example 49] |  | 100 | 14.5 |  |  |
| Clc1cnn(CCCCN2CCN(c3ncccn3)CC2)c1 [Example 50, 1H-pyrazole-4-chloro-1-(4-(4-(2-pyrimidinyl)-1-piperazinyl)-butyldihydrochloride] |  |  |  | 4.9 | 99 |
| O=C1c2ccccc2S(=O)(=O)N1CCCCN1CCN(c2ncccn2)CC1 [Ipsapirone, reference compound] | 26.1 | 98 |  |  |  |

From patent publication US5128343A, “Derivatives of pyrimidinyl-piperazinyl-alkyl azoles with anxiolytic and/or tranquilizing activity” (Laboratorios del Dr. Esteve, priority 1989, dated 1992)
